Publication PMC6211260 (Journal of Enzyme Inhibition and Medicinal Chemistry, 2018)

Experiments:
Assay type in all cases: cell-based
[1] = test system: A498 renal cancer cell line; assay: NCI five-dose testing; details: A498; for IC (TGI): read-out: TGI (total growth inhibition concentration)
Experimental: (§1) Screening against the cancer cell lines was carried out at the National Cancer Institute (NCI, Bethesda, Maryland, USA) applying the standard protocol of the NCI[22].

[2] = test system: HT-29 colon cancer cell line; assay: NCI five-dose testing; details: HT-29; for IC50: read-out: IC50; for IC (TGI): read-out: TGI (total growth inhibition concentration)
Experimental: as §1

[3] = test system: K-562 leukaemia cell line; assay: NCI five-dose testing; details: K-562; for IC (TGI): read-out: TGI (total growth inhibition concentration)
Experimental: as §1

[4] = test system: PC-3 prostate cancer cell line; assay: NCI five-dose testing; details: PC-3; for IC50: read-out: IC50; for IC (TGI): read-out: TGI (total growth inhibition concentration)
Experimental: as §1

[5] = test system: HOP-92 non-small cell lung cancer cell line; assay: NCI five-dose testing; details: HOP-92; for IC (TGI): read-out: TGI (total growth inhibition concentration)
Experimental: as §1

[6] = test system: MDA-MB-468 breast cancer cell line; assay: NCI five-dose testing; details: MDA-MB-468; for IC (TGI): read-out: TGI (total growth inhibition concentration)
Experimental: as §1

[7] = test system: U251 CNS cancer cell line; assay: NCI five-dose testing; details: U251; for IC50: read-out: IC50; for IC (TGI): read-out: TGI (total growth inhibition concentration)
Experimental: as §1

[8] = test system: SK-MEL-5 melanoma cell line; assay: NCI five-dose testing; details: SK-MEL-5; for IC (TGI): read-out: TGI (total growth inhibition concentration)
Experimental: as §1

[9] = test system: OVCAR-4 ovarian cancer cell line; assay: NCI five-dose testing; details: OVCAR-4; for IC (TGI): read-out: TGI (total growth inhibition concentration)
Experimental: as §1

[10] = test system: prostate cancer cell lines; assay: NCI five-dose testing, subpanel mean; details: subpanel VIII: prostate cancer
Experimental: as §1

CNS cancer cell lines = assay: NCI five-dose testing, subpanel mean; details: subpanel IV: CNS cancer
Experimental: as §1

breast cancer cell lines = assay: NCI five-dose testing, subpanel mean; details: subpanel IX: breast cancer
Experimental: as §1

renal cancer cell lines = assay: NCI five-dose testing, subpanel mean; details: subpanel VII: renal cancer
Experimental: as §1

Leukaemia cell lines = assay: NCI five-dose testing, subpanel mean; details: subpanel I: Leukaemia
Experimental: as §1

colon cancer cell lines = assay: NCI five-dose testing, subpanel mean; details: subpanel III: colon cancer
Experimental: as §1

[11] = test system: ovarian cancer cell lines; assay: NCI five-dose testing, subpanel mean; details: subpanel VI: ovarian cancer
Experimental: as §1

melanoma cell lines = assay: NCI five-dose testing, subpanel mean; details: subpanel V: melanoma
Experimental: as §1

[12] = test system: non-small cell lung cancer cell lines; assay: NCI five-dose testing, subpanel mean; details: subpanel II: non-small cell lung cancer
Experimental: as §1

SMILES	IC50 [1]	LD50 (lethal dose 50) [1]	IC (TGI) [1]	LD50 (lethal dose 50) [2]	IC50 [2]	IC (TGI) [2]	IC50 [3]	LD50 (lethal dose 50) [3]	IC (TGI) [3]	LD50 (lethal dose 50) [4]	IC50 [4]	IC (TGI) [4]	IC50 [5]	LD50 (lethal dose 50) [5]	IC (TGI) [5]	IC50 [6]	LD50 (lethal dose 50) [6]	IC (TGI) [6]	LD50 (lethal dose 50) [7]	IC50 [7]	other results
O=S(=O)(NCCNc1cc(-c2cn(-c3ccccc3)nc2-c2cccc(O)c2)ccn1)c1ccc(Br)cc1 [Compound 1k, 4-Bromo-N-(2-((4-(3-(3-hydroxyphenyl)-1-phenyl-1H-pyrazol-4-yl)pyridin-2-yl)amino)ethyl) benzenesulfonamide]	3.33 µM	34.3 µM	5.4 µM	17.3 µM	2.17 µM	5.0 µM	1.98 µM	>100 µM	5.4 µM	>100 µM	2.07 µM	6.4 µM	2 µM	34.6 µM	5.0 µM	2.7 µM	>100 µM	7.7 µM	25.6 µM	2.21 µM	IC (TGI) [7]: 5.6 µM; IC50 [8]: 1.64 µM; LD50 (lethal dose 50) [8]: 5.6 µM; IC (TGI) [8]: 3.0 µM; IC50 [9]: 2.32 µM; LD50 (lethal dose 50) [9]: >100 µM; IC (TGI) [9]: 13.7 µM; IC50 [10]: 2.54 µM; IC50 (CNS cancer cell lines): 2.18 µM; IC50 (breast cancer cell lines): 2.34 µM; IC50 (renal cancer cell lines): 2.48 µM; IC50 (Leukaemia cell lines): 2.11 µM; IC50 (colon cancer cell lines): 2.29 µM; IC50 [11]: 2.87 µM; IC50 (melanoma cell lines): 2.03 µM; IC50 [12]: 2.69 µM
O=S(=O)(NCCNc1cc(-c2cn(-c3ccccc3)nc2-c2cccc(O)c2)ccn1)c1ccc(F)cc1 [Compound 1m, 4-Fluoro-N-(2-((4-(3-(3-hydroxyphenyl)-1-phenyl-1H-pyrazol-4-yl)pyridin-2-yl)amino)ethyl) benzenesulfonamide]	2.32 µM	45.7 µM	9.2 µM	54.3 µM	1.99 µM	47.9 µM	1.98 µM	>100 µM	>100 µM	>100 µM	2.29 µM	10.2 µM	2.03 µM	68.8 µM	8.4 µM	1.88 µM	>100 µM	5.3 µM	50.9 µM	2.62 µM	IC (TGI) [7]: 6.8 µM; IC50 [8]: 1.73 µM; LD50 (lethal dose 50) [8]: 6.0 µM; IC (TGI) [8]: 3.2 µM; IC50 [9]: 3.05 µM; LD50 (lethal dose 50) [9]: >100 µM; IC (TGI) [9]: >100 µM; IC50 [10]: 2.88 µM; IC50 (CNS cancer cell lines): 2.51 µM; IC50 (breast cancer cell lines): 2.16 µM; IC50 (renal cancer cell lines): 2.88 µM; IC50 (Leukaemia cell lines): 2.29 µM; IC50 (colon cancer cell lines): 2.34 µM; IC50 [11]: 2.68 µM; IC50 (melanoma cell lines): 2.06 µM; IC50 [12]: 2.65 µM
